The values that follow come from patent US5981498A, “Agent for improving the blood circulation” (Kabushiki Kaisha Hayashibara Seibutsu Kagaku Kenkyujo, priority 1997, dated 1999).

In test [1] the test system is blood flow, dorsum cucullaris of volunteer with stiffness in both shoulders. The test is described as follows: Plethysmogram / volume pulse wave (PTG), improvement of blood circulation. Format: in vivo, human. The following applies: similar experiment on vitamin P, cataplasm, MV and PTG.
Text: MV is an apparatus for recording micro-vibration of ballistic components accompanied by muscular fibers in vivo and heartbeat by converting the micro-vibration into an electrodynamic phenomenon where peaks are detected at a high-frequency region in patients with muscular rigidity such as stiffness in the shoulder, and the peaks are shifted to a lower-frequency region as the muscular rigidity is relived. PTG is an apparatus for detecting blood flow as a vascular change in pressure and for expressing change in volume as a wave-height level; When the wave-height level is increased as the increment of blood flow in a stiff part in the shoulder, meaning that blood circulation is improved.
The patient was monitored for both MV and PTG by a polygraph for 20 min, and the data were recorded by a data recorder.
On the next morning, the cataplasm was removed from the volunteer while they were allowed to lay on the bed, followed by attaching pickups to the same part as of the cataplasm for measuring and recording MV and PTG for 30 min and for two hours, respectively, similarly as above.
Test [2] concerns lumbago or chronic stiffness in the shoulder. Put plainly: Clinical test, cataplasm (Table 1). Format: in vivo, human. Conditions: versus sucrose; Tables 1 and 2. On the procedure: A clinical paramedic conducted the experiment and, after the experiment, asked the therapeutic effect and the side effects of the volunteers. The therapeutic effect was evaluated with four ranks of "very effective", "effective", "unchanged", and "worsened", and the effectivity (%) was calculated as a percentage of the number of volunteers, who answered "very effective" and "effective", to the total number of volunteers.

In the case of vitamin P, the “effect as compared with control” value in test [1] was “substantially showed no remarkable effect”.

On to `OC[C@H]1O[C@H](O[C@H]2O[C@H](CO)[C@@H](O)[C@H](O)[C@H]2O)[C@H](O)[C@@H](O)[C@@H]1O` [trehalose], for which the “effect of trehalose on the muscular-rigidity-relieving activity of glycosyl vitamin P” value in test [2] was “significantly augmented”.
